Measured values published in patent US9988400B2 (Genentech, Inc., priority 2013, dated 2018).

Molecular target: T1, HEK cells stably transfected with tetracycline inducible hNR1 and hNR2A (Homo sapiens, UniProt Q05586+Q12879)
T1 construct: expressed in transfected cells; host or cells: HEK cells, stably transfected, tetracycline/doxycycline inducible
Assay: Assay 1: Cell-Based Assay, cytosolic calcium response to positive allosteric modulators (with 30 μM glycine and 300 nM L-glutamate, EC30)
Details: Table 3; cytosolic calcium response, with 30 μM glycine and 300 nM L-glutamate (EC30); — = no plateau was reached
Procedure, shortened: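 Cells induced 24 h with 7.5 μg mL^−1 doxycycline plus 500 μM (+)-ketamine, loaded 60 min at 37 °C with calcium dye in Mg-free HBSS (1.8 mM Ca, probenecid, 10 μM (+)-ketamine, pH 7.15). Peak RFU over 5 min after compound addition, scaled to 100 μM L-glutamate (100%) and 0 μM (0%); four-parameter Hill fit for EC50, max % if no plateau.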

T1 sequence (Q12879 23-1464, other chains not shown): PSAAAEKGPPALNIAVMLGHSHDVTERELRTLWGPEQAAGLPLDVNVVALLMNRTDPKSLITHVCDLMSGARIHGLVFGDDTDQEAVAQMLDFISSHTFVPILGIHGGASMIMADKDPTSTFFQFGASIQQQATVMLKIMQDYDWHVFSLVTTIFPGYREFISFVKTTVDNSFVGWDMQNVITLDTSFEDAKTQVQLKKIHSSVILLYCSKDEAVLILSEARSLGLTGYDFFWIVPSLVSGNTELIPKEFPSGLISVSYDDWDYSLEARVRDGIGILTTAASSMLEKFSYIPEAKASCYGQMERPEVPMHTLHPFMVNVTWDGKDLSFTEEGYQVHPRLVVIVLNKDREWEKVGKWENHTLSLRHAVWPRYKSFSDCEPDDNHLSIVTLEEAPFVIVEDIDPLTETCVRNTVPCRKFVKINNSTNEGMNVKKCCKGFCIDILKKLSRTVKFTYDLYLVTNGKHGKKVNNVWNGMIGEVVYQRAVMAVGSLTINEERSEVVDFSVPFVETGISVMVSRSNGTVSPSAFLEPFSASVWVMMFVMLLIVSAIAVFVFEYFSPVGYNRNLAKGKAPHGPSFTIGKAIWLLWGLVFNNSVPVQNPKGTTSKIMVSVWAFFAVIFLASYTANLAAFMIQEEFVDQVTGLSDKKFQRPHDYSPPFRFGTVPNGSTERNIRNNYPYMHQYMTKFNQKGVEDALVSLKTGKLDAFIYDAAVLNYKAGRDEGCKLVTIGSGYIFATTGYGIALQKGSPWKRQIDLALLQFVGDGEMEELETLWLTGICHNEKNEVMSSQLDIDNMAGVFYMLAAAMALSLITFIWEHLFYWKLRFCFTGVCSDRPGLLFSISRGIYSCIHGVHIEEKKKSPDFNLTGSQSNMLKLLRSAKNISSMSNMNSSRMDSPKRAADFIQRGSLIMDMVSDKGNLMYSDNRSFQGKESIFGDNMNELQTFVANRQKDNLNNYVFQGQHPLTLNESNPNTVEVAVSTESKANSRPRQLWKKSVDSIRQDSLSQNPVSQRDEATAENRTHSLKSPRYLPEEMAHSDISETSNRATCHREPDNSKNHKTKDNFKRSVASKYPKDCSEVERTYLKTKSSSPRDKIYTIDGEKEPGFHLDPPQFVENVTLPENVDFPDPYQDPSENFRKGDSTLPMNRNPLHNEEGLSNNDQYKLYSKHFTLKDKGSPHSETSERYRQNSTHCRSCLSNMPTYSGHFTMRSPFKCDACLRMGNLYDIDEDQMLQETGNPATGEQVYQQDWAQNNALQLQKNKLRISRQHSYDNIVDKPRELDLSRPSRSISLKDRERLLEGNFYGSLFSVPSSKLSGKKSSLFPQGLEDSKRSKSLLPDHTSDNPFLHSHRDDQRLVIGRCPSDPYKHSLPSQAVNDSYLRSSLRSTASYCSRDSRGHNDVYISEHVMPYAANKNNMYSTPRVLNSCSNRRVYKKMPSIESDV

| Compound | EC50 |
| --- | --- |
| Cc1sc2nc(Cn3nc(Cl)cc3C(F)(F)F)cc(=O)n2c1C(C)CO (centres unmarked) [compound 223, 7-[[3-chloro-5-(trifluoromethyl)pyrazol-1-yl]methyl]-3-(2-hydroxy-1-methyl-ethyl)-2-methyl-thiazolo[3,2-a]pyrimidin-5-one] | 10.9 µM |
| O=c1cc(Cn2nc(C(F)(F)F)cc2Cl)nc2scc(Br)n12 [compound 225, 3-bromo-7-[[5-chloro-3-(trifluoromethyl)pyrazol-1-yl]methyl]thiazolo[3,2-a]pyrimidin-5-one] | 8.69 µM |
| Cc1sc2nc(Cn3nc(N)cc3Cl)cc(=O)n2c1Br [compound 227, 7-[(3-amino-5-chloro-pyrazol-1-yl)methyl]-3-bromo-2-methyl-thiazolo[3,2-a]pyrimidin-5-one] | 13 µM |
| Cc1sc2nc(Cn3nc(Cl)cc3N)cc(=O)n2c1Br [compound 228, 7-[(5-amino-3-chloro-pyrazol-1-yl)methyl]-3-bromo-2-methyl-thiazolo[3,2-a]pyrimidin-5-one] | 32.2 µM |
| O=c1cc(Cn2nc(C(F)(F)F)cc2Cl)nc2sc(C(F)(F)F)c(N3CC(F)(F)C3)n12 [compound 231, 7-[[5-chloro-3-(trifluoromethyl)pyrazol-1-yl]methyl]-3-(3,3-difluoroazetidin-1-yl)-2-(trifluoromethyl)thiazolo[3,2-a]pyrimidin-5-one] | 61.3 µM |
| O=c1cc(Cn2nc(C(F)(F)F)cc2Cl)nc2scc(Cl)n12 [compound 235, 3-chloro-7-[[5-chloro-3-(trifluoromethyl)pyrazol-1-yl]methyl]thiazolo[3,2-a]pyrimidin-5-one] | 21.2 µM |
| O=c1cc(Cn2nc(Cl)cc2C(F)(F)F)nc2scc(Cl)n12 [compound 236, 3-chloro-7-[[3-chloro-5-(trifluoromethyl)pyrazol-1-yl]methyl]thiazolo[3,2-a]pyrimidin-5-one] | 44.5 µM |

These reach a lower EC50. Values come first.

| EC50 | Compound |
| --- | --- |
| 0.366 µM | Cc1sc2nc(Cn3nc(C(F)(F)F)cc3Cl)cc(=O)n2c1C(=O)C1CC1 [compound 224, 7-[[5-chloro-3-(trifluoromethyl)pyrazol-1-yl]methyl]-3-(cyclopropanecarbonyl)-2-methyl-thiazolo[3,2-a]pyrimidin-5-one] |
| 1.42 µM | O=c1cc(Cn2nc(Cl)cc2C(F)(F)F)nc2scc(Br)n12 [compound 226, 3-bromo-7-[[3-chloro-5-(trifluoromethyl)pyrazol-1-yl]methyl]thiazolo[3,2-a]pyrimidin-5-one] |
| 6.46 µM | Cc1sc2nc(Cn3nc(C(F)(F)F)cc3Cl)cc(=O)n2c1CC#N [compound 229, 2-[7-[[5-chloro-3-(trifluoromethyl)pyrazol-1-yl]methyl]-2-methyl-5-oxo-thiazolo[3,2-a]pyrimidin-3-yl]acetonitrile] |
| 6.86 µM | CCNC(=O)c1c(C(F)(F)F)sc2nc(CN(C)c3ccc(F)cn3)cc(=O)n12 [compound 230, N-ethyl-7-[[(5-fluoro-2-pyridyl)-methyl-amino]methyl]-5-oxo-2-(trifluoromethyl)thiazolo[3,2-a]pyrimidine-3-carboxamide] |
| 6.14 µM | COc1sc2nc(Cn3nc(C(F)(F)F)cc3Cl)cc(=O)n2c1-c1cccnc1 [compound 233, 7-[[5-chloro-3-(trifluoromethyl)pyrazol-1-yl]methyl]-2-methoxy-3-(3-pyridyl)thiazolo[3,2-a]pyrimidin-5-one] |
| 0.0342 µM | Cc1sc2nc(Cn3nc(C(F)(F)F)cc3Br)cc(=O)n2c1C1CC1C#N (centres unmarked) [compound 234, 2-[7-[[5-bromo-3-(trifluoromethyl)pyrazol-1-yl]methyl]-2-methyl-5-oxo-thiazolo[3,2-a]pyrimidin-3-yl]cyclopropanecarbonitrile] |
| 0.889 µM | CCNC(=O)c1c(C(C)=O)sc2nc(Cn3nc(C(F)(F)F)cc3Cl)cc(=O)n12 [compound 237, 2-acetyl-7-[[5-chloro-3-(trifluoromethyl)pyrazol-1-yl]methyl]-N-ethyl-5-oxo-thiazolo[3,2-a]pyrimidine-3-carboxamide] |
